According to publication PMC6338774 (Scientific Reports, 2019):

Legend:
[1] = tested on: human colon carcinoma Caco-2 cells; experiment: WST-1 cell proliferation assay, Caco-2 cells; format: cell-based; conditions: WST-1, 72 h; for IC50: concentrations 50-200 µM, mean ± SD, na = not active in range tested
Protocol: (§1) Human promyelocytic leukemia HL-60 cells and human colon cancer cell line Caco-2 were obtained from the American Type Culture Collection (Manassas, VA, USA). […] (Institute of Biotechnology, Faculty of Environment and Natural Sciences, Brandenburg University of Technology Cottbus-Senftenberg, Senftenberg, Germany)[34] were cultured in DMEM medium supplemented with 10% fetal bovine serum (FBS, Invitrogen, Carlsbad, USA), 2 mM glutamine and antibiotics (complete DMEM). Cells (4 × 10^3/well) were grown for 24 h in 96-well plates (Sarstedt, Germany) in appropriate complete medium at 37 °C and atmosphere containing 5% CO2. […] After indicated periods of time, WST-1 mixture was added to each well, and the cells were cultured for additional 6 h. The absorbance at 450 nm was measured on an EnSpire 2300 Multilabel Reader (Perkin-Elmer, USA), and data were analyzed using the program EnSpire 9.0 (Perkin-Elmer, USA). The experiments were performed in triplicates and repeated at least three times independently.

[2] = tested on: human promyelocytic leukemia HL-60 cells; experiment: WST-1 cell proliferation assay, HL-60 cells; format: cell-based; conditions: WST-1, 72 h; for IC50: concentrations 50-200 µM, mean ± SD, na = not active in range tested
Protocol: as §1

[3] = tested on: porcine epithelial intestinal IPEC-J2 cells; experiment: WST-1 cell proliferation assay, IPEC-J2 cells; format: cell-based; conditions: Sus scrofa, WST-1, 72 h, concentrations 50-200 µM, mean ± SD, na = not active in range tested
Protocol: as §1, with “independently. Results were presented as mean IC50 (concentration of the tested compound, that inhibits cell proliferation by 50%) ± standard deviation.” for “independently.”

Solubility in DMSO = format: physicochemical; conditions: the reason cytotoxicity was not tested

Structure (SMILES) | IC50 ([1]; Homo sapiens, Caco-2) | IC50 [3] | IC50 ([2]; Homo sapiens, HL-60) | IC50 [1] | further results
CCCCCCCCCCCCCCCC(=O)O[C@H](COC(=O)C(C)c1ccc2cc(OC)ccc2c1)COP(=O)([O-])OCC[N+](C)(C)C (mixture of isomers) [Compound 10, 1-[2′-(6″-Methoxynaphthalenyl)]propanoyl-2-palmitoyl-sn-glycero-3-phosphocholine] |  |  |  |  | concentration up to which non-toxic, Caco-2 cells [1]: ≤ 200 µM; IC50 [2]: 27.1 ± 5.13 µM
COc1ccc2cc(C(C)C(=O)OC[C@H](COP(=O)([O-])OCC[N+](C)(C)C)OC(=O)C(C)c3ccc4cc(OC)ccc4c3)ccc2c1 (mixture of isomers) [Compound 16, 1,2-Di-[2′-(6″-methoxynaphthalenyl)]propanoyl-sn-glycero-3-phosphocholine] | 68.7 ± 18.4 µM | 58.4 ± 5.67 µM | 80.1 ± 10.9 µM |  | 
CCCCCCCCCCCCCCCC(=O)OC[C@H](COP(=O)([O-])OCC[N+](C)(C)C)OC(=O)C(C)c1ccc2cc(OC)ccc2c1 (stereo partly drawn) [Compound 13, 1-Palmitoyl-2-[2′S-(6″-methoxynaphthalenyl)]propanoyl-sn-glycero-3-phosphocholine] |  |  |  |  | solubility in DMSO (Solubility in DMSO): poor solubility
CC(C)Cc1ccc([C@H](C)C(=O)OC[C@@H](O)COP(=O)([O-])OCC[N+](C)(C)C)cc1 [Compound 7, 1-[2′S-(4″-Isobutylphenyl)]propanoyl-2-hydroxy-sn-glycero-3-phosphocholine] |  |  |  | 122 ± 2.76 µM | concentration up to which non-toxic, HL-60 cells [2]: 200 µM
CC(C)Cc1ccc(C(C)C(=O)O)cc1 (centres unmarked) [Compound 1, ibuprofen, reference compound] | 114 ± 10.4 µM | 155 ± 7.57 µM | 106 ± 17.4 µM |  | concentration up to which non-toxic, HL-60 cells [2]: ≤ 100 µM
CCCCCCCCCCCCCCCC(=O)O[C@H](COC(=O)C(C)c1ccc(CC(C)C)cc1)COP(=O)([O-])OCC[N+](C)(C)C (mixture of isomers) [Compound 9, 1-[2′-(4″-Isobutylphenyl)]propanoyl-2-palmitoyl-sn-glycero-3-phosphocholine] |  |  |  | 125 ± 3.87 µM | IC50 [2]: 67.1 ± 10.9 µM
CCCCCCCCCCCCCCCC(=O)OC[C@H](COP(=O)([O-])OCC[N+](C)(C)C)OC(=O)C(C)c1ccc(CC(C)C)cc1 (mixture of isomers) [Compound 12, 1-Palmitoyl-2-[2′-[4″-isobutylphenyl)]propanoyl-sn-glycero-3-phosphocholine] | 135 ± 18.2 µM | 79.2 ± 7.86 µM | 77.4 ± 18.2 µM |  | 
COc1ccc2cc([C@H](C)C(=O)O)ccc2c1 [Compound 2, naproxen, reference compound] |  | 78.6 ± 15.9 µM | 141 ± 8.51 µM |  | 
CC(C)Cc1ccc(C(C)C(=O)OC[C@H](COP(=O)([O-])OCC[N+](C)(C)C)OC(=O)C(C)c2ccc(CC(C)C)cc2)cc1 (mixture of isomers) [Compound 15, 1,2-Di-[2′-(4″-isobutylphenyl)]propanoyl-sn-glycero-3-phosphocholine] | 81.3 ± 17.3 µM | 83.4 ± 1.51 µM | 64.5 ± 10.4 µM |  | 
COc1ccc2cc([C@H](C)C(=O)OC[C@@H](O)COP(=O)([O-])OCC[N+](C)(C)C)ccc2c1 [Compound 8, 1-[2′S-(6″-Methoxynaphthalenyl)]propanoyl-2-hydroxy-sn-glycero-3-phosphocholine] |  |  |  | 115 ± 26.1 µM | 
